Key:
Format in all cases: cell-based
[1] = test system: A549 lung cancer cell line; test: CCK-8 proliferation inhibition; conditions: concentration of 30 μM
Procedure, shortened: (§1)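 Plating at 2000 cells/well, then incubation overnight at 37° C. Next, a range of compound concentrations for 72 hours (control 1‰ DMSO). Finally, medium decanted and CCK-8 diluted 1:10 added.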

[2] = test system: MGC-803 gastric cancer cell line; test: CCK-8 proliferation inhibition; conditions: Homo sapiens, MGC-803, 72 h, concentration of 30 μM
Procedure, shortened: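 Proliferation was measured with 1:10 diluted CCK-8 after a 72-hour incubation with the inhibitors at various final concentrations, using 1‰ DMSO as the control. Cells were plated at 2000 per well. Culture media contained 10% newborn bovine serum: 1640 for Jurkat and MGC-803, F12 for PC3, DMEM high glucose for MCF-7.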

[3] = test system: BEL-7402 liver cancer cell line; test: CCK-8 proliferation inhibition; conditions: concentration of 30 μM
Procedure, shortened: as §1

[4] = test system: HCT-116 colorectal cancer cell line; test: CCK-8 proliferation inhibition; conditions: concentration of 30 μM, 72 hours, CCK-8
Procedure, shortened: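 Cells were plated overnight at 2000 cells/well, then compound in culture medium was added at a range of final concentrations. After 72 hours in a CO2 incubator, medium was replaced with 1:10 CCK-8 solution for the read-out.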

[5] = test system: methicillin-resistant Staphylococcus aureus (MRSA); test: MIC, two-fold agar dilution (CLSI), clinical isolates
Procedure, shortened: (§2)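 CLSI two-fold agar dilution; MIC of test samples read per tested strain.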

[6] = test system: methicillin-resistant Staphylococcus epidermidis (MRSE); test: as above
Procedure, shortened: as §2

[7] = test system: Enterococcus faecalis (EFA); test: as above
Procedure, shortened: as §2

[8] = test system: Streptococcus pneoumoniae (SPN); test: as above
Procedure, shortened: as §2

[9] = test system: Escherichia coli (including ESBLs, non-ESBLs); test: as above
Procedure, shortened: as §2

[10] = test system: Moraxella catarrhalis (BCA); test: as above
Procedure, shortened: as §2

[11] = test system: methicillin-sensitive Staphylococcus aureus (MSSA); test: as above
Procedure, shortened: as §2

[12] = test system: methicillin-sensitive Staphylococcus epidermidis (MSSE); test: as above
Procedure, shortened: as §2

[13] = test system: Enterococcus faecium (EFM); test: as above
Procedure, shortened: as §2

SMILES: CCCC[C@H](CC(=O)NO)C(=O)N1CC2(CC2)C[C@H]1C(=O)Nc1nc(C(F)(F)F)cs1 [Example 57]
- inhibition at 30 µM ([1]; Homo sapiens, A549, 72 h): > 50%
- Inhibition of proliferation, Lung cancer A549 ([1]; 72 hours, 30 µM): 52%
- inhibition at 30 µM [2]: 34%
- inhibition at 30 µM ([3]; Homo sapiens, Bel-7402, 72 h): > 50%
- Inhibition of proliferation, Liver cancer BEL-7402 ([3]; 72 hours, 30 µM): 57%
- inhibition at 30 µM ([4]; Homo sapiens, HCT-116, 72 h, read-out: HCT116 inhibition rate/%): > 50%
- HCT116 inhibition rate/% ([4]; 30 µM): 52%
- Anti-bacterial activity (MIC), strain MRSA 15-1 ([5]; clinical isolate MRSA 15-1): 0.5 µg/mL
- Anti-bacterial activity (MIC), strain MRSA 15-2 ([5]; clinical isolate MRSA 15-2): 0.5 µg/mL
- Anti-bacterial activity (MIC), strain MRSA 15-3 ([5]; clinical isolate MRSA 15-3): 0.5 µg/mL
- Anti-bacterial activity (MIC), strain MRSA 15-4 ([5]; clinical isolate MRSA 15-4): 0.5 µg/mL
- Anti-bacterial activity (MIC), strain MRSE 15-1 ([6]; clinical isolate MRSE 15-1): 0.125 µg/mL
- Anti-bacterial activity (MIC), strain MRSE 15-2 ([6]; clinical isolate MRSE 15-2): 0.125 µg/mL
- Anti-bacterial activity (MIC), strain MRSE 15-3 ([6]; clinical isolate MRSE 15-3): 0.125 µg/mL
- Anti-bacterial activity (MIC), strain MRSE 15-7 ([6]; clinical isolate MRSE 15-7): 0.25 µg/mL
- Anti-bacterial activity (MIC), strain EFA 15-1 ([7]; clinical isolate EFA 15-1): 8 µg/mL
- Anti-bacterial activity (MIC), strain EFA 15-2 ([7]; clinical isolate EFA 15-2): 8 µg/mL
- Anti-bacterial activity (MIC), strain EFA 15-3 ([7]; clinical isolate EFA 15-3): 8 µg/mL
- Anti-bacterial activity (MIC), strain EFA 15-4 ([7]; clinical isolate EFA 15-4): 8 µg/mL
- Anti-bacterial activity (MIC), strain EFA 15-5 ([7]; clinical isolate EFA 15-5): 8 µg/mL
- Anti-bacterial activity (MIC), strain EFA 15-6 ([7]; clinical isolate EFA 15-6): 8 µg/mL
- Anti-bacterial activity (MIC), strain EFA 15-9 ([7]; clinical isolate EFA 15-9): 8 µg/mL
- Anti-bacterial activity (MIC), strain SPN 16-2 ([8]; clinical isolate SPN 16-2): 2 µg/mL
- Anti-bacterial activity (MIC), strain SPN 16-4 ([8]; clinical isolate SPN 16-4): 0.25 µg/mL
- Anti-bacterial activity (MIC), strain ECO+ 15-1 ([9]; clinical isolate ECO+ 15-1): 32 µg/mL
- Anti-bacterial activity (MIC), strain ECO+ 15-2 ([9]; clinical isolate ECO+ 15-2): > 32 µg/mL
- Anti-bacterial activity (MIC), strain ECO+ 15-3 ([9]; clinical isolate ECO+ 15-3): > 32 µg/mL
- Anti-bacterial activity (MIC), strain ECO+ 15-4 ([9]; clinical isolate ECO+ 15-4): > 32 µg/mL
- Anti-bacterial activity (MIC), strain ECO− 15-1 ([9]; clinical isolate ECO− 15-1): > 32 µg/mL
- Anti-bacterial activity (MIC), strain ECO− 15-2 ([9]; clinical isolate ECO− 15-2): > 32 µg/mL
- Anti-bacterial activity (MIC), strain ECO− 15-3 ([9]; clinical isolate ECO− 15-3): > 32 µg/mL
- Anti-bacterial activity (MIC), strain ECO− 15-4 ([9]; clinical isolate ECO− 15-4): > 32 µg/mL
- Anti-bacterial activity (MIC), strain BCA 14-1 ([10]; clinical isolate BCA 14-1): 0.5 µg/mL
- Anti-bacterial activity (MIC), strain BCA 14-4 ([10]; clinical isolate BCA 14-4): 0.5 µg/mL
- Anti-bacterial activity (MIC), strain BCA 14-5 ([10]; clinical isolate BCA 14-5): 0.5 µg/mL
- Anti-bacterial activity (MIC), strain BCA 14-6 ([10]; clinical isolate BCA 14-6): 1 µg/mL
- Anti-bacterial activity (MIC), strain BCA 14-7 ([10]; clinical isolate BCA 14-7): 0.25 µg/mL
- Anti-bacterial activity (MIC), strain BCA 14-8 ([10]; clinical isolate BCA 14-8): 0.25 µg/mL
- Anti-bacterial activity (MIC), strain BCA 14-10 ([10]; clinical isolate BCA 14-10): 0.25 µg/mL
- Anti-bacterial activity (MIC), strain MSSA 15-3 ([11]; clinical isolate MSSA 15-3): 0.5 µg/mL
- Anti-bacterial activity (MIC), strain MSSA 15-4 ([11]; clinical isolate MSSA 15-4): 0.125 µg/mL
- Anti-bacterial activity (MIC), strain MSSA 15-5 ([11]; clinical isolate MSSA 15-5): 0.125 µg/mL
- Anti-bacterial activity (MIC), strain MSSA 15-6 ([11]; clinical isolate MSSA 15-6): 0.125 µg/mL
- Anti-bacterial activity (MIC), strain MSSE 15-3 ([12]; clinical isolate MSSE 15-3): 0.25 µg/mL
- Anti-bacterial activity (MIC), strain MSSE 15-4 ([12]; clinical isolate MSSE 15-4): 0.125 µg/mL
- Anti-bacterial activity (MIC), strain MSSE 15-5 ([12]; clinical isolate MSSE 15-5): 0.125 µg/mL
- Anti-bacterial activity (MIC), strain MSSE 15-6 ([12]; clinical isolate MSSE 15-6): 0.06 µg/mL
- Anti-bacterial activity (MIC), strain EFM 15-1 ([13]; clinical isolate EFM 15-1): 1 µg/mL
- Anti-bacterial activity (MIC), strain EFM 15-2 ([13]; clinical isolate EFM 15-2): 2 µg/mL
- Anti-bacterial activity (MIC), strain EFM 15-3 ([13]; clinical isolate EFM 15-3): 0.25 µg/mL
- Anti-bacterial activity (MIC), strain EFM 15-4 ([13]; clinical isolate EFM 15-4): 1 µg/mL
- Anti-bacterial activity (MIC), strain EFM 15-5 ([13]; clinical isolate EFM 15-5): 0.5 µg/mL
- Anti-bacterial activity (MIC), strain EFM 15-6 ([13]; clinical isolate EFM 15-6): 4 µg/mL

— patent US10738028B2, “Spiro three-membered ring, spiro five-membered ring peptide deformylase inhibitor and use thereof in antibacteria and anti-tumor” (priority 2016, dated 2020)
